Results taken from ChEMBL document CHEMBL1156967 (Bioorg Med Chem Lett, 2010).

Assays:
[1] = tested on: Rattus norvegicus; assay: Antiinflammatory activity in Lewis rat assessed as reduction in LPS-stimulated TNFalpha accumulation at 1 mg/kg, ig administered 4 hrs before LPS challenge measured after […] by ELISA; assay type: functional; conditions: po, route intragastric
[2] = tested on: Blood; assay: Antiinflammatory activity against LPS-induced TNFalpha production in human whole blood treated 1 hr before LPS challenge measured after 4 hrs by ELISA; assay type: functional, tissue-based
[3] = Half life in human liver microsomes; assay type: ADME, Microsome
[4] = Intrinsic clearance in human liver microsomes; assay type: ADME, Microsome
[5] = molecular target: Mitogen-activated protein kinase 14 (Homo sapiens, UniProt Q16539); assay: Inhibition of p38alpha assessed as gamma-[33P]ATP incorporation by scintillation counting
Chain of Mitogen-activated protein kinase 14 (Q16539 whole entry): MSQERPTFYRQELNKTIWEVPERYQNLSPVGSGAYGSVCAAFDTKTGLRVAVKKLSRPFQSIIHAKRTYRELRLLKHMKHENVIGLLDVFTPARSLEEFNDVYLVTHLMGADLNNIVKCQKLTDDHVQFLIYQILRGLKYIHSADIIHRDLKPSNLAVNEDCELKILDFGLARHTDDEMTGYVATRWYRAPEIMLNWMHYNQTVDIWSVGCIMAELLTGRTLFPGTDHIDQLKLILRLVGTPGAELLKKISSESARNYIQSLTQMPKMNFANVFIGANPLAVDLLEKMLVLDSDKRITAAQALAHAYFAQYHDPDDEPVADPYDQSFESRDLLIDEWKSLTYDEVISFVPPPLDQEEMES

[6] = molecular target: Mitogen-activated protein kinase 11 (Homo sapiens, UniProt Q15759); assay: Inhibition of p38beta assessed as gamma-[33P]ATP incorporation by scintillation counting
Chain of Mitogen-activated protein kinase 11 (Q15759 whole entry): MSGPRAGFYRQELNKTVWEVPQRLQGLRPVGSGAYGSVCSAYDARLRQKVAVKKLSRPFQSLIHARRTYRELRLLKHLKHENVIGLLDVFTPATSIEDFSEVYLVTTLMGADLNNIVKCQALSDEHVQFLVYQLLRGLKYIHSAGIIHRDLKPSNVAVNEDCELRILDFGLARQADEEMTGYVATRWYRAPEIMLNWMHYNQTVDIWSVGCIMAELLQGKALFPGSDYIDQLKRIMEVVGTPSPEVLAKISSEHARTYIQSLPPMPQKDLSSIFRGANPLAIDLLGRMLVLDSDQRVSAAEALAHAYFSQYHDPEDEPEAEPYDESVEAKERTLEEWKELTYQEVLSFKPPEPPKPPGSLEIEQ

[7] = molecular target: hERG (KCNH2) (Homo sapiens, UniProt Q12809); assay: Displacement of dofetilide from human ERG at 10 uM; conditions: probe dofetilide
Chain of hERG (KCNH2) (Q12809 whole entry): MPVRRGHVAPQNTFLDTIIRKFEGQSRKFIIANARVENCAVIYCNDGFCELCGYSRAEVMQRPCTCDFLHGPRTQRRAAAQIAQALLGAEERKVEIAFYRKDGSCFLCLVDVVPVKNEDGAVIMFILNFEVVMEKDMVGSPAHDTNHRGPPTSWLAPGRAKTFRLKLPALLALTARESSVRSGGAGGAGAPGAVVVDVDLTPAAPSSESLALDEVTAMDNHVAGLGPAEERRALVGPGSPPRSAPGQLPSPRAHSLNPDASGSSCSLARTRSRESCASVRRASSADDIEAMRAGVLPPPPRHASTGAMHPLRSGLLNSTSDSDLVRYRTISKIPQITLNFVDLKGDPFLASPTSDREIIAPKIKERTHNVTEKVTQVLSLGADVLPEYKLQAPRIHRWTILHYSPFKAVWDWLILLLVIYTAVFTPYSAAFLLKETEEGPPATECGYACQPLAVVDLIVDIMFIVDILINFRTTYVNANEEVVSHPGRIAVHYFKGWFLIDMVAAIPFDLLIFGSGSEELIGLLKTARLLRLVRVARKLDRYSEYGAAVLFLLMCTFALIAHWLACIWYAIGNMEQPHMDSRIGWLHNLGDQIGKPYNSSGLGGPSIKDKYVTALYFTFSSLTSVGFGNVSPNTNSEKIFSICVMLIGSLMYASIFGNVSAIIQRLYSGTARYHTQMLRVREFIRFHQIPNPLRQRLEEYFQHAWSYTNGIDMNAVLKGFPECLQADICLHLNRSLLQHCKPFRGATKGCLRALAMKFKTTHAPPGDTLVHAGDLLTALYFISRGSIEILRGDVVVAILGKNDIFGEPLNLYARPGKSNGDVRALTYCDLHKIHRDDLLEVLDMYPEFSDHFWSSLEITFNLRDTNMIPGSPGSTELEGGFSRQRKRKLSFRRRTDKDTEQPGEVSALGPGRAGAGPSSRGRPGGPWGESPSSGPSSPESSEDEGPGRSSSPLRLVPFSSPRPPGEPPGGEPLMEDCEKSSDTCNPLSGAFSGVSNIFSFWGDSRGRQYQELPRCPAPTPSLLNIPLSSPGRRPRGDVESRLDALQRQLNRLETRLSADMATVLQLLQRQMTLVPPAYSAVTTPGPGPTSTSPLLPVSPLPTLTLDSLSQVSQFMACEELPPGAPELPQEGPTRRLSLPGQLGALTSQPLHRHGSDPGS

[8] = tested on: Rattus norvegicus; assay: Antiinflammatory activity in Lewis rat plasma assessed as reduction in LPS-stimulated TNFalpha accumulation at 5 mg/kg, ig administered 4 hrs before LPS challenge measured after […] by ELISA; assay type: functional; conditions: po, route intragastric
[9] = tested on: Mus musculus; assay: Antiarthritic activity against collagen-induced arthritis in DBA/1 mouse chronic CIA model assessed as incidence of arthritis at 30 mg/kg, po after 21 days; assay type: functional
[10] = molecular target: Voltage-gated inwardly rectifying potassium channel KCNH2 (Homo sapiens, UniProt Q12809); assay: Inhibition of human ERG by patch clamp technique
Chain of Voltage-gated inwardly rectifying potassium channel KCNH2 (Q12809 whole entry): as above

[11] = Selectivity ratio of IC50 for p38 beta to IC50 for p38alpha
[12] = tested on: Rattus norvegicus; assay: Antiinflammatory activity in Lewis rat plasma assessed as reduction in LPS-stimulated TNFalpha accumulation at 20 mg/kg, ig administered 4 hrs before LPS challenge measured after […] by ELISA; assay type: functional; conditions: po, route intragastric
[13] = Half life in rat at 5 mg/kg, iv; assay type: ADME, organism-based; parameters: dose 5 mg/kg, route intravenous; conditions: in vivo
[14] = Volume of distribution in rat at 5 mg/kg, iv; assay type: ADME, organism-based; parameters: dose 5 mg/kg, route intravenous; conditions: in vivo
[15] = Clearance in dog at 2.5 mg/kg, iv; assay type: ADME, organism-based, Canis lupus familiaris; parameters: dose 2.5 mg/kg, route intravenous; conditions: in vivo
[16] = Half life in dog at 2.5 mg/kg, iv; assay type: ADME, organism-based, Canis lupus familiaris; parameters: dose 2.5 mg/kg, route intravenous; conditions: in vivo
[17] = Clearance in rat at 5 mg/kg, iv; assay type: ADME, organism-based; parameters: dose 5 mg/kg, route intravenous; conditions: in vivo
[18] = Volume of distribution in dog at 2.5 mg/kg, iv; assay type: ADME, organism-based, Canis lupus familiaris; parameters: dose 2.5 mg/kg, route intravenous; conditions: in vivo
[19] = Bioavailability in rat at 5 mg/kg, iv; assay type: ADME, organism-based; conditions: in vivo
[20] = Bioavailability in dog at 2.5 mg/kg, iv; assay type: ADME, organism-based, Canis lupus familiaris; conditions: in vivo

Row | SMILES | IC50 [5] [µM] | IC50 [6] [µM] | inhibition in vivo at 5 mg/kg [8] [%] | other results
1 | OCCN1CCC(c2[nH]nc(-c3ccc(Cl)cc3)c2-c2ccncn2)CC1 | 0.035 | 2.54 | 88 | inhibition in vivo at 1 mg/kg [1]: 80%; IC50 [2]: 0.49 µM; half-life [3]: 47.6 min; CLint scaled [4]: 21.4 mL/min/kg; inhibition at 10 µM [7]: 46%; Activity [9]: 61%
2 | CC(=O)N1CCC(c2[nH]nc(-c3ccc(Cl)cc3)c2-c2ccncc2)CC1 | 0.068 | 3.13 | 66 | half-life [3]: 43.3 min; CLint scaled [4]: 22.5 mL/min/kg; Activity [9]: 50%
3 | CS(=O)(=O)N1CCC(c2[nH]nc(-c3ccc(Cl)cc3)c2-c2ccncc2)CC1 | 0.07 | 3.53 | 75 | –
4 | CC(=O)N1CCC(c2[nH]nc(-c3ccc(F)cc3)c2-c2ccncc2)CC1 | – | 2.77 | 41 | IC50 [10]: 0.79 µM
5 | CC(C)(O)CN1CCC(c2[nH]nc(-c3ccc(Cl)cc3)c2-c2ccncn2)CC1 | 0.088 | 9.78 | 34 | inhibition in vivo at 1 mg/kg [1]: 3%; IC50 [2]: 1 µM
6 | CC(C)(CO)N1CCC(c2[nH]nc(-c3ccc(Cl)cc3)c2-c2ccncn2)CC1 | 0.184 | 2.78 | 0 | –
7 | CN(C)C(=O)N1CCC(c2[nH]nc(-c3ccc(Cl)cc3)c2-c2ccncn2)CC1 | 0.088 | 3.48 | 88 | inhibition in vivo at 1 mg/kg [1]: 53%
8 | CN1CCC(c2[nH]nc(-c3ccc(Cl)cc3)c2-c2ccncn2)CC1 | – | 2.32 | 63 | inhibition in vivo at 1 mg/kg [1]: 36%; IC50 [2]: 0.8 µM; half-life [3]: 31.2 min; CLint scaled [4]: 31.5 mL/min/kg; inhibition at 10 µM [7]: 51%; Activity [9]: 20%
9 | CN1CCC(c2[nH]nc(-c3ccc(C(F)(F)F)cc3)c2-c2ccncc2)CC1 | 0.0405 | 3.77 | 22 | –
10 | Fc1ccc(-c2n[nH]c(C3CCNCC3)c2-c2ccncc2)cc1 | 0.0253 | 0.51 | 2 | –
11 | O[C@H]1CCC[C@@H]1N1CCC(c2[nH]nc(-c3ccc(Cl)cc3)c2-c2ccncn2)CC1 | 0.019 | 3.38 | 70 | inhibition in vivo at 1 mg/kg [1]: 40%
12 | CC(=O)N1CCC(c2[nH]nc(-c3ccc(Cl)cc3)c2-c2ccncn2)CC1 | 0.152 | 3.71 | 90 | inhibition in vivo at 1 mg/kg [1]: 72%; half-life [3]: 102 min; CLint scaled [4]: 9.5 mL/min/kg; Activity [9]: 50%
13 | CN1CCC(c2[nH]nc(-c3ccc(F)cc3)c2-c2ccncc2)CC1 | 0.0547 | 1.96 | 77 | Ratio IC50 [11]: 35
14 | Fc1ccc(-c2n[nH]c(C3CCCNC3)c2-c2ccncc2)cc1 (centres undefined) | 0.0483 | 0.404 | – | Ratio IC50 [11]: 6
15 | CN(C)CC(=O)N1CCC(c2[nH]nc(-c3ccc(Cl)cc3)c2-c2ccncc2)CC1 | 0.08 | 6.72 | 85 | –
16 | O=C(CO)N1CCC(c2[nH]nc(-c3ccc(Cl)cc3)c2-c2ccncc2)CC1 | – | 1.79 | 85 | half-life [3]: 62 min; CLint scaled [4]: 15.8 mL/min/kg; inhibition at 10 µM [7]: 24%; Activity [9]: 60%
17 | CN1CCCC(c2[nH]nc(-c3ccc(F)cc3)c2-c2ccncc2)C1 (centres undefined) | 0.09 | 2.52 | 63 | Ratio IC50 [11]: 28

Row | SMILES | IC50 [5] [µM] | IC50 [6] [µM] | inhibition in vivo at 5 mg/kg [8] [%] | other results
18 | COCC(=O)N1CCC(c2[nH]nc(-c3ccc(Cl)cc3)c2-c2ccncc2)CC1 | – | 3.45 | 90 | –
19 | COCCCN1CCC(c2[nH]nc(-c3ccc(Cl)cc3)c2-c2ccncc2)CC1 | 0.106 | 6.55 | – | –
20 | OCCN1CCC(c2[nH]nc(-c3ccc(Cl)cc3)c2-c2ccncc2)CC1 | 0.041 | 3.39 | 88 | half-life [3]: 30.5 min; CLint scaled [4]: 32 mL/min/kg; inhibition at 10 µM [7]: 61%; Activity [9]: 70%
21 | Clc1ccc(-c2n[nH]c(C3CCN(C4CCOCC4)CC3)c2-c2ccncn2)cc1 | 0.205 | 9.5 | 46 | IC50 [2]: > 5 µM
22 | Cc1ccc(-c2n[nH]c(C3CCN(C)CC3)c2-c2ccncc2)cc1 | 0.0996 | 3.07 | – | inhibition in vivo at 20 mg/kg [12]: 44%
23 | O=C(O)CN1CCC(c2[nH]nc(-c3ccc(Cl)cc3)c2-c2ccncc2)CC1 | 0.126 | 4.34 | 20 | –
24 | Clc1ccc(-c2n[nH]c(C3CCN(C4CCOC4)CC3)c2-c2ccncn2)cc1 (centres undefined) | 0.031 | 7.41 | 70 | inhibition in vivo at 1 mg/kg [1]: 80%; IC50 [2]: 0.52 µM; half-life [3]: 61.3 min; CLint scaled [4]: 16.3 mL/min/kg; inhibition at 10 µM [7]: 35%; Activity [9]: 50%
25 | COCCN1CCC(c2[nH]nc(-c3ccc(Cl)cc3)c2-c2ccncc2)CC1 | 0.07 | 6.72 | 84 | half-life [3]: 21.5 min; CLint scaled [4]: 47.7 mL/min/kg; inhibition at 10 µM [7]: 74%; Activity [9]: 22%
26 | COCC(=O)N1CCC(c2[nH]nc(-c3ccc(Cl)cc3)c2-c2ccncn2)CC1 | – | 3.25 | 88 | inhibition in vivo at 1 mg/kg [1]: 71%
27 | CS(=O)(=O)N1CCC(c2[nH]nc(-c3ccc(Cl)cc3)c2-c2ccncn2)CC1 | 0.198 | 4.1 | 89 | inhibition in vivo at 1 mg/kg [1]: 26%; IC50 [2]: > 5 µM; half-life [3]: 53.9 min; CLint scaled [4]: 18.1 mL/min/kg; Activity [9]: 44%
28 | NS(=O)(=O)N1CCC(c2[nH]nc(-c3ccc(Cl)cc3)c2-c2ccncc2)CC1 | 0.014 | 1.65 | 68 | –
29 | CN1CCC(c2[nH]nc(-c3ccc(Cl)cc3)c2-c2ccncc2)CC1 | 0.0316 | 2.68 | 71 | Ratio IC50 [11]: 84
30 | CN1CCC(c2[nH]nc(-c3cccc(C(F)(F)F)c3)c2-c2ccncc2)CC1 | 0.0265 | 0.164 | 6 | –
31 | O=C(CO)N1CCC(c2n[nH]c(-c3ccc(Cl)cc3)c2-c2ccncn2)CC1 [SD-0006] | – | 3.45 | 87 | half-life [13]: 243 min; inhibition in vivo at 1 mg/kg [1]: 81%; Vd [14]: 1.74 L/kg; half-life [3]: > 120 min; CLint scaled [4]: < 8 mL/min/kg; clearance [15]: 2.92 mL/min/kg; half-life [16]: 269 min; clearance [17]: 4.96 mL/min/kg; Vd [18]: 1.07 L/kg; inhibition at 10 µM [7]: 16%; bioavailability [19]: > 80%; Activity [9]: 16%; bioavailability [20]: > 80%
32 | Cc1cccc(-c2n[nH]c(C3CCN(C)CC3)c2-c2ccncc2)c1 | 0.0673 | 2.35 | – | inhibition in vivo at 20 mg/kg [12]: 81%
33 | Clc1ccc(-c2n[nH]c(C3CCN(Cc4ccncc4)CC3)c2-c2ccncn2)cc1 | 0.047 | 3.29 | 27 | –
34 | CN1CCC(c2[nH]nc(-c3cccc(Cl)c3)c2-c2ccncc2)CC1 | – | 1.05 | 27 | –
